Laboratory results from patent US10259781B2, “Imaging agents” (THE REGENTS OF THE UNIVERSITY OF MICHIGAN, priority 2012, dated 2019).
“Also recorded” adds a separate entry of the source.

Columns and labels:
[1] = Metabolic breakdown in monkey plasma (reverse-phase HPLC of venous blood samples); assay type: in vivo, rhesus macaque monkey; settings: rhesus monkeys
Description: In some of the microPET studies, venous blood samples (e.g., n=6) were drawn to assess the metabolic breakdown of [^18F]4F-MHPG in plasma (see Table 1). Plasma was processed for injection onto a reverse-phase HPLC system equipped with a radiation detector. The percentages of intact parent tracer and radiolabeled metabolites were determined as a function of time. In this system, [^18F]4-MHPG has a retention time Rt of approximately 11.2 minutes while the main polar radiometabolite formed has an Rt of approximately 7.9 minutes.

[2] = In vitro incubation with monkey liver cytosol fraction and PAPS (sulfur conjugation); assay type: in vitro ADME
Description: The main radiometabolite formed is more polar than the parent compound, [^18F]4-MHPG. The metabolite has been identified as the sulfur conjugate of [^18F]4-MHPG based on in vitro incubations of the parent compound with a monkey liver cytosol fraction and the required cofactor 3′-phospho-adenosine-5′phosphosulfate (PAPS). After only 1 minute of in vitro incubation, approximately 70% of [^18F]4-MHPG was sulfur conjugated, and after 20 minutes of incubation, 100% was in the sulfur-conjugated form (FIG. 4B). Sulfur conjugation occurs at the meta-hydroxyl group (FIG. 4C). Without being bound by theory and without requiring an understanding of the mechanism to practice the technology, it is contemplated that rapid metabolism of [^18F]4F-MHPG is a reason for its low liver uptake. In comparison, the structurally similar carbon-11 compound, [^11C]guanyl-meta-octopamine (GMO), has a slower metabolic breakdown in monkey plasma, with a T1/2 for breakdown of approximately 13 minutes.

[3] = target: T1, norepinephrine transporters (NET) (Macaca mulatta, UniProt Q9MYW8); test: Desipramine (DMI) block of the neuronal uptake of [18F]4F-MHPG, microPET; assay type: in vivo, rhesus macaque monkey
T1 construct: from tissue; host or cells: heart (presynaptic sympathetic nerve terminals) of living rhesus macaque monkeys, microPET in vivo
Source text: Additional data were collected and Patlak analyses performed.
Orthogonal slice images were acquired for comparison with data from a control study.

Biodistribution in rats = assay type: in vivo, rat; settings: for Biodistribution, Ovary / Biodistribution, Testes / Biodistribution, Uterus: n = 2
Description: During the development of embodiments of the technology, data were collected from bioevaluation studies of [^18F]4F-MHPG. […]
(§1) During the development of embodiments of the technology provided herein, the biodistribution of [^18F]4F-MHPG into the organs of rats was assessed. In particular, four time points (Table 3) were collected and used to derive human radiation absorbed dose estimates using the OLINDA/EXM 1.0 software package (see, e.g., Stabin et al. (2005) “OLINDA/EXM; the second-generation personal computer software for internal dose assessment in nuclear medicine”, J Nucl Med. 46: 1023-7). […] These values were entered into the Dynamic Bladder model of OLINDA/EXM, assuming a 4.0-hour void interval. Organs with the highest absorbed dose estimates included the urinary bladder wall (0.666 rad/mCi), […] (0.221 rad/mCi), small intestine (0.201 rad/mCi), and the heart wall (0.201 rad/mCi). An ‘effective dose’ of 0.091 rem/mCi was estimated for [^18F]4F-MHPG. Under United States Federal Regulations governing research with a new radiopharmaceutical (21 CFR § 361.1), the maximum allowable radiation absorbed dose to an individual organ (other than the gonads) is 5 rad. Considering the maximum estimated absorbed dose (urinary bladder wall; 0.666 rad/mCi), initial PET studies in human subjects could use a maximum of 7.5 mCi of [^18F]4F-MHPG. This would correspond to an ‘effective dose’ of 0.68 rem.

[4] = MicroPET imaging studies in rats: excretion through the bladder; assay type: in vivo, rat
Description: as §1

[5] = 30 minutes after injection, n=5

T1 sequence (Q9MYW8 1-617): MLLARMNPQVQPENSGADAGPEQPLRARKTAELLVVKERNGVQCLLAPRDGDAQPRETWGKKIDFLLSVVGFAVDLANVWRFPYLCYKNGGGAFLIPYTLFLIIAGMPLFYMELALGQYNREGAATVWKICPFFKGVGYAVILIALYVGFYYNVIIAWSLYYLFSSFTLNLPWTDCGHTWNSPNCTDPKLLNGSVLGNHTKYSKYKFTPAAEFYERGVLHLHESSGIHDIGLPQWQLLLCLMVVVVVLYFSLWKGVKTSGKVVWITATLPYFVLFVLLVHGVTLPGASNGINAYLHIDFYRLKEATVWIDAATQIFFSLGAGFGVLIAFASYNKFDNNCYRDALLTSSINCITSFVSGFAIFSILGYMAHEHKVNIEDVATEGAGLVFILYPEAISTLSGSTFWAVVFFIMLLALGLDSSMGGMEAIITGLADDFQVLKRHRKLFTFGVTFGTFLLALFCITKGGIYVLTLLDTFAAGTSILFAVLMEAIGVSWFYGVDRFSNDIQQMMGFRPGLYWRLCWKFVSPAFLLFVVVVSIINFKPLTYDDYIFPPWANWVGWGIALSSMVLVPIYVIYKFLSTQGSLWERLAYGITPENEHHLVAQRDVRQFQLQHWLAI

metabolism in plasma [1]: rapidly metabolized
fraction sulfur conjugated ([2]; after 1 minute of in vitro incubation): approximately 70%
fraction in the sulfur-conjugated form ([2]; after 20 minutes of incubation): 100%
specificity of myocardial uptake for cardiac sympathetic neurons ([3]; control vs DMI block): 100%
nonspecific binding in heart tissue ([3]; highest dose DMI block study): very low; also recorded: extremely low
maximum percentage of the injected dose observed in the gastrointestinal tract (Biodistribution in rats): 12.6%
Biodistribution, Adrenal (Biodistribution in rats; 5 min): 0.203 ± 0.083 % ID · kg/g
Biodistribution, Blood (Biodistribution in rats; 5 min): 0.062 ± 0.004 % ID/g
Biodistribution, Bone (Biodistribution in rats; 5 min): 0.060 ± 0.015 % ID/g
Biodistribution, Brain (Biodistribution in rats; 5 min): 0.004 ± 0.001 % ID · kg/g
Biodistribution, Eyeballs (Biodistribution in rats; 5 min): 0.039 ± 0.006 % ID · kg/g
Biodistribution, Heart (Biodistribution in rats; 5 min): 0.746 ± 0.067 % ID · kg/g
Biodistribution, Kidney (Biodistribution in rats; 5 min): 1.398 ± 0.530 % ID · kg/g
Biodistribution, Liver (Biodistribution in rats; 5 min): 0.477 ± 0.110 % ID · kg/g
Biodistribution, Lung (Biodistribution in rats; 5 min): 0.267 ± 0.045 % ID · kg/g
Biodistribution, Muscle (Biodistribution in rats; 5 min): 0.019 ± 0.005 % ID/g
Biodistribution, Pancreas (Biodistribution in rats; 5 min): 0.137 ± 0.024 % ID · kg/g
Biodistribution, Spleen (Biodistribution in rats; 5 min): 0.268 ± 0.044 % ID · kg/g
Biodistribution, Stomach (Biodistribution in rats; 5 min): 0.116 ± 0.021 % ID · kg/g
Biodistribution, Ovary (Biodistribution in rats; 5 min): 0.194 ± 0.048 % ID · kg/g
Biodistribution, Testes (Biodistribution in rats; 5 min): 0.018 ± 0.002 % ID · kg/g
Biodistribution, Uterus (Biodistribution in rats; 5 min): 0.268 ± 0.044 % ID · kg/g
Biodistribution, Adrenal (Biodistribution in rats; 30 min): 0.181 ± 0.069 % ID · kg/g
Biodistribution, Blood (Biodistribution in rats; 30 min): 0.022 ± 0.003 % ID/g
Biodistribution, Bone (Biodistribution in rats; 30 min): 0.039 ± 0.015 % ID/g
Biodistribution, Brain (Biodistribution in rats; 30 min): 0.003 ± 0.000 % ID · kg/g
Biodistribution, Eyeballs (Biodistribution in rats; 30 min): 0.040 ± 0.004 % ID · kg/g
Biodistribution, Heart (Biodistribution in rats; 30 min): 0.602 ± 0.111 % ID · kg/g
Biodistribution, Kidney (Biodistribution in rats; 30 min): 0.183 ± 0.055 % ID · kg/g
Biodistribution, Liver (Biodistribution in rats; 30 min): 0.406 ± 0.071 % ID · kg/g
Biodistribution, Lung (Biodistribution in rats; 30 min): 0.136 ± 0.032 % ID · kg/g
Biodistribution, Muscle (Biodistribution in rats; 30 min): 0.025 ± 0.011 % ID/g
Biodistribution, Pancreas (Biodistribution in rats; 30 min): 0.145 ± 0.021 % ID · kg/g
Biodistribution, Spleen (Biodistribution in rats; 30 min): 0.262 ± 0.055 % ID · kg/g
Biodistribution, Stomach (Biodistribution in rats; 30 min): 0.110 ± 0.004 % ID · kg/g
Biodistribution, Ovary (Biodistribution in rats; 30 min): 0.171 ± 0.020 % ID · kg/g
Biodistribution, Testes (Biodistribution in rats; 30 min): 0.010 ± 0.001 % ID · kg/g
Biodistribution, Uterus (Biodistribution in rats; 30 min): 0.155 ± 0.001 % ID · kg/g
Biodistribution, Adrenal (Biodistribution in rats; 60 min): 0.193 ± 0.053 % ID · kg/g
Biodistribution, Blood (Biodistribution in rats; 60 min): 0.016 ± 0.002 % ID/g
Biodistribution, Bone (Biodistribution in rats; 60 min): 0.027 ± 0.009 % ID/g
Biodistribution, Brain (Biodistribution in rats; 60 min): 0.002 ± 0.000 % ID · kg/g
Biodistribution, Eyeballs (Biodistribution in rats; 60 min): 0.041 ± 0.006 % ID · kg/g
Biodistribution, Heart (Biodistribution in rats; 60 min): 0.526 ± 0.116 % ID · kg/g
Biodistribution, Kidney (Biodistribution in rats; 60 min): 0.186 ± 0.090 % ID · kg/g
Biodistribution, Liver (Biodistribution in rats; 60 min): 0.350 ± 0.077 % ID · kg/g
Biodistribution, Lung (Biodistribution in rats; 60 min): 0.091 ± 0.015 % ID · kg/g
Biodistribution, Muscle (Biodistribution in rats; 60 min): 0.016 ± 0.002 % ID/g
Biodistribution, Pancreas (Biodistribution in rats; 60 min): 0.172 ± 0.042 % ID · kg/g
Biodistribution, Spleen (Biodistribution in rats; 60 min): 0.253 ± 0.054 % ID · kg/g
Biodistribution, Stomach (Biodistribution in rats; 60 min): 0.115 ± 0.029 % ID · kg/g
Biodistribution, Ovary (Biodistribution in rats; 60 min): 0.142 ± 0.052 % ID · kg/g
Biodistribution, Testes (Biodistribution in rats; 60 min): 0.008 ± 0.003 % ID · kg/g
Biodistribution, Uterus (Biodistribution in rats; 60 min): 0.112 ± 0.046 % ID · kg/g
Biodistribution, Adrenal (Biodistribution in rats; 120 min): 0.133 ± 0.021 % ID · kg/g
Biodistribution, Blood (Biodistribution in rats; 120 min): 0.009 ± 0.001 % ID/g
Biodistribution, Bone (Biodistribution in rats; 120 min): 0.016 ± 0.005 % ID/g
Biodistribution, Brain (Biodistribution in rats; 120 min): 0.001 ± 0.001 % ID · kg/g
Biodistribution, Eyeballs (Biodistribution in rats; 120 min): 0.026 ± 0.006 % ID · kg/g
Biodistribution, Heart (Biodistribution in rats; 120 min): 0.347 ± 0.055 % ID · kg/g
Biodistribution, Kidney (Biodistribution in rats; 120 min): 0.078 ± 0.024 % ID · kg/g
Biodistribution, Liver (Biodistribution in rats; 120 min): 0.233 ± 0.049 % ID · kg/g
Biodistribution, Lung (Biodistribution in rats; 120 min): 0.036 ± 0.006 % ID · kg/g
Biodistribution, Muscle (Biodistribution in rats; 120 min): 0.015 ± 0.002 % ID/g
Biodistribution, Pancreas (Biodistribution in rats; 120 min): 0.121 ± 0.016 % ID · kg/g
Biodistribution, Spleen (Biodistribution in rats; 120 min): 0.235 ± 0.066 % ID · kg/g
Biodistribution, Stomach (Biodistribution in rats; 120 min): 0.089 ± 0.019 % ID · kg/g
Biodistribution, Ovary (Biodistribution in rats; 120 min): 0.129 ± 0.029 % ID · kg/g
Biodistribution, Testes (Biodistribution in rats; 120 min): 0.004 ± 0.001 % ID · kg/g
Biodistribution, Uterus (Biodistribution in rats; 120 min): 0.081 ± 0.006 % ID · kg/g
biological half-time of excretion through the bladder [4]: 0.20±0.02 hours
injected dose excreted through the bladder [4]: 19.9±0.2%
Compound: N=C(N)NCCc1ccc(F)c(O)c1 [[^18F]4F-MHPG] [4-[^18F]fluoro-meta-hydroxy-phenethylguanidine]
tissue concentration, adrenal medulla (Biodistribution in rats; [5]): 0.54 ± 0.08 percentage of the injected dose per gram
tissue concentration, blood (Biodistribution in rats; [5]): 0.07 ± 0.01 percentage of the injected dose per gram
tissue concentration, left ventricle (Biodistribution in rats; [5]): 1.45 ± 0.13 percentage of the injected dose per gram
tissue concentration, liver (Biodistribution in rats; [5]): 1.14 ± 0.16 percentage of the injected dose per gram
tissue concentration, lung (Biodistribution in rats; [5]): 0.43 ± 0.08 percentage of the injected dose per gram
tissue concentration, muscle (Biodistribution in rats; [5]): 0.07 ± 0.01 percentage of the injected dose per gram
tissue concentration, spleen (Biodistribution in rats; [5]): 0.56 ± 0.10 percentage of the injected dose per gram
